# Reference: paper PMC11340618 (iScience, 2024)
# Tested on: intracellular Mtb ΔptpA mutant in THP-1 cells
# Type: cell-based, Mycobacterium tuberculosis
smiles,measurement,value
O=C(NCc1ccccn1)Nc1cc(N2CC(CCc3ccccc3)CC2=O)ccn1 (stereo not shown) [P-4423632],dose-dependent activity against intracellular Mtb,not against a ΔptpA mutant
